Experimental data from US5466450A, “Antiviral antibiotic BU-4224V” (priority 1993, dated 1995).
Converted amounts (≈) assume the structure as drawn.

Columns and labels:
Assay type in all cases: cell-based
[1] = system: herpes simplex virus type 1 (KOS strain); assay: Dye uptake assay, HSV-1 infection in Vero cells; conditions: Human alphaherpesvirus 1, HSV-1, Vero cells, 72 hours, read-out: ID50 (the source's name)
Description: (§1) Antiviral activity for each component of BU-4224V was evaluated by the dye uptake and the plaque reduction assay using herpes simplex virus type 1 (KOS strain) infection in Vero cells. In the dye uptake assay, 200 μl of the Vero cell suspension containing 1.6×10^4 cells was poured into each well of 96-well microplates, and then 50 μl of medium containing a test compound at various concentrations was added to each well. The viral suspension (50 μl ) containing approximately 30X TCID50 was inoculated to each well. For cytotoxicity tests, the same set of wells without viruses were prepared. After incubation at 37° C. for 72 hours under the humidified 5% CO2 -95% air environment, the degree of inhibition of the virus-induced cytopathic effect and the drug-induced cytotoxicity were determined by means of the uptake of neutral red. […] Acyclovir was used as a reference compound of anti-HSV activity. The antiviral activity of BU-4224V was also evaluated by the conventional plaque reduction assay method using a 24-well microplate.

[2] = Minimal toxic dose in the plaque reduction assay; conditions: monkey, HSV-Vero cells, read-out: MTD (minimal toxic dose)
Description: as §1

in vitro = conditions: monkey, vero cells
Description: as §1

[3] = system: herpes simplex virus type 1 (KOS strain); assay: Plaque reduction assay, HSV-1 infection in Vero cells; conditions: Human alphaherpesvirus 1, HSV-1, Vero cells, read-out: ID50 (the source's name)
Description: as §1

Nc1nc2c(ncn2COCCO)c(=O)[nH]1 [Acyclovir]
IC50 [1]: 0.09 µg/mL (≈ 0.4 µM)
MCC [2]: > 100 µg/mL
CC50 at 72 h (in vitro): > 100 µg/mL
IC50 [3]: 0.27 µg/mL (≈ 1.2 µM)
